Measurements: the kinase profiling compilation of Christmann-Franck et al. (2016)

Columns and labels:
Test in all cases: KINOMEscan competition binding
Settings in all cases: compound 1.0 µM
PIK3C2G (human) = PIK3C2G (human) (UniProt O75747)
MAP2K6 (human) = MAP2K6 (human) (UniProt P52564)
PRKACB (human) = PRKACB (human) (UniProt P22694)
BUB1 (human) = BUB1 (human) (UniProt O43683)
ACVR1 (human) = ACVR1 (human) (UniProt Q04771)
[1] = system: RET (human), P07949 [M918T]
EGFR (human) = EGFR (human) (UniProt P00533)
TNK1 (human) = TNK1 (human) (UniProt Q13470)
SIK3 (human) = SIK3 (human) (UniProt Q9Y2K2)
PAK4 (human) = PAK4 (human) (UniProt O96013)
CSNK1G2 (human) = CSNK1G2 (human) (UniProt P78368)
MAP4K1 (human) = MAP4K1 (human) (UniProt Q92918)
PRKCI (human) = PRKCI (human) (UniProt P41743)
CLK1 (human) = CLK1 (human) (UniProt P49759)
CSNK1A1L (human) = CSNK1A1L (human) (UniProt Q8N752)
MAPK7 (human) = MAPK7 (human) (UniProt Q13164)
[2] = system: PIK3CA (human), P42336 [C420R]
MST4 (human) = MST4 (human) (UniProt Q9P289)
PHKG2 (human) = PHKG2 (human) (UniProt P15735)
MAP4K3 (human) = MAP4K3 (human) (UniProt Q8IVH8)
MAP2K3 (human) = MAP2K3 (human) (UniProt P46734)
PAK6 (human) = PAK6 (human) (UniProt Q9NQU5)
PHKG1 (human) = PHKG1 (human) (UniProt Q16816)
ACVRL1 (human) = ACVRL1 (human) (UniProt P37023)
PRKAA2 (human) = PRKAA2 (human) (UniProt P54646)
CDK4 CCND1 (human) = CDK4 CCND1 (human) (UniProt P11802+P24385)
ULK1 (human) = ULK1 (human) (UniProt O75385)
CDK5 (human) = CDK5 (human) (UniProt Q00535)
[3] = system: FLT3 (human), P36888 [D835Y]
CDK2 (human) = CDK2 (human) (UniProt P24941)
[4] = system: PIK3CA (human), P42336 [E545A]
MAP2K7 (human) = MAP2K7 (human) (UniProt O14733)
MAPK10 (human) = MAPK10 (human) (UniProt P53779)
TRPM6 (human) = TRPM6 (human) (UniProt Q9BX84)
BTK (human) = BTK (human) (UniProt Q06187)
RPS6KA1 KD1 (human) = RPS6KA1 KD1 (human) (UniProt Q15418)
CSNK1E (human) = CSNK1E (human) (UniProt P49674)
LATS1 (human) = LATS1 (human) (UniProt O95835)
RPS6KA5 KD2 (human) = RPS6KA5 KD2 (human) (UniProt O75582)

Sequence of LATS1 (human) (O95835 whole entry, looked up): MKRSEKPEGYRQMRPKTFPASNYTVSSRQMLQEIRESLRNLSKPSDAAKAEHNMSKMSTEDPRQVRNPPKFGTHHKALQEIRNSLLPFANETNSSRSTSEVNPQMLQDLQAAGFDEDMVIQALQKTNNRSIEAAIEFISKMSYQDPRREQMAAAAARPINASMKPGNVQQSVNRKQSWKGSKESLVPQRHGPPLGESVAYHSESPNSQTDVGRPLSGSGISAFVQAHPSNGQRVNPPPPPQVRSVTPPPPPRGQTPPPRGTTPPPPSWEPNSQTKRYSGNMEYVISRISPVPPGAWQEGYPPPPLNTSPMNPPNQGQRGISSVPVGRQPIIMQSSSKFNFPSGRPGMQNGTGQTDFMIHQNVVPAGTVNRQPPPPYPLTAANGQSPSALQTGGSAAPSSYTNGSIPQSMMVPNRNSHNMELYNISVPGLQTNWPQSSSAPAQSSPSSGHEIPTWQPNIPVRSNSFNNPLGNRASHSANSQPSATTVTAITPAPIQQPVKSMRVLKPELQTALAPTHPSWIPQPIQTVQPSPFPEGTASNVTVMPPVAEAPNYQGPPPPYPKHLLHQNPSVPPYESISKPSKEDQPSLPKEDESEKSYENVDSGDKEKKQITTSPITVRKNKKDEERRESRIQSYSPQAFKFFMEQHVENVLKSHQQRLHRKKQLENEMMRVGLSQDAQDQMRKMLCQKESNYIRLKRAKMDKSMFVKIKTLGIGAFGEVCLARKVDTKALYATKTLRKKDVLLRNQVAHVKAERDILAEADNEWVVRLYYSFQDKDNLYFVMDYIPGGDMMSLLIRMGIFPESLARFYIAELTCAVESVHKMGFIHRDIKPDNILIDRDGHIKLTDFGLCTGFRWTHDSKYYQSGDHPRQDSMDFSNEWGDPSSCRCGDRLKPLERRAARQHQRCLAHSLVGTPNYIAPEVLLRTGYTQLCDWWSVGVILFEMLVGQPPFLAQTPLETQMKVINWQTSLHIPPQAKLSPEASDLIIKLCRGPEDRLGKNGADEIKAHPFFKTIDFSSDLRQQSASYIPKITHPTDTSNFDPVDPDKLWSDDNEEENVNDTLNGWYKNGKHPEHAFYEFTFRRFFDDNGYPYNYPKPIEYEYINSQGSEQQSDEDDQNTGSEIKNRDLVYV
Sequence of TRPM6 (human) (Q9BX84 whole entry, looked up): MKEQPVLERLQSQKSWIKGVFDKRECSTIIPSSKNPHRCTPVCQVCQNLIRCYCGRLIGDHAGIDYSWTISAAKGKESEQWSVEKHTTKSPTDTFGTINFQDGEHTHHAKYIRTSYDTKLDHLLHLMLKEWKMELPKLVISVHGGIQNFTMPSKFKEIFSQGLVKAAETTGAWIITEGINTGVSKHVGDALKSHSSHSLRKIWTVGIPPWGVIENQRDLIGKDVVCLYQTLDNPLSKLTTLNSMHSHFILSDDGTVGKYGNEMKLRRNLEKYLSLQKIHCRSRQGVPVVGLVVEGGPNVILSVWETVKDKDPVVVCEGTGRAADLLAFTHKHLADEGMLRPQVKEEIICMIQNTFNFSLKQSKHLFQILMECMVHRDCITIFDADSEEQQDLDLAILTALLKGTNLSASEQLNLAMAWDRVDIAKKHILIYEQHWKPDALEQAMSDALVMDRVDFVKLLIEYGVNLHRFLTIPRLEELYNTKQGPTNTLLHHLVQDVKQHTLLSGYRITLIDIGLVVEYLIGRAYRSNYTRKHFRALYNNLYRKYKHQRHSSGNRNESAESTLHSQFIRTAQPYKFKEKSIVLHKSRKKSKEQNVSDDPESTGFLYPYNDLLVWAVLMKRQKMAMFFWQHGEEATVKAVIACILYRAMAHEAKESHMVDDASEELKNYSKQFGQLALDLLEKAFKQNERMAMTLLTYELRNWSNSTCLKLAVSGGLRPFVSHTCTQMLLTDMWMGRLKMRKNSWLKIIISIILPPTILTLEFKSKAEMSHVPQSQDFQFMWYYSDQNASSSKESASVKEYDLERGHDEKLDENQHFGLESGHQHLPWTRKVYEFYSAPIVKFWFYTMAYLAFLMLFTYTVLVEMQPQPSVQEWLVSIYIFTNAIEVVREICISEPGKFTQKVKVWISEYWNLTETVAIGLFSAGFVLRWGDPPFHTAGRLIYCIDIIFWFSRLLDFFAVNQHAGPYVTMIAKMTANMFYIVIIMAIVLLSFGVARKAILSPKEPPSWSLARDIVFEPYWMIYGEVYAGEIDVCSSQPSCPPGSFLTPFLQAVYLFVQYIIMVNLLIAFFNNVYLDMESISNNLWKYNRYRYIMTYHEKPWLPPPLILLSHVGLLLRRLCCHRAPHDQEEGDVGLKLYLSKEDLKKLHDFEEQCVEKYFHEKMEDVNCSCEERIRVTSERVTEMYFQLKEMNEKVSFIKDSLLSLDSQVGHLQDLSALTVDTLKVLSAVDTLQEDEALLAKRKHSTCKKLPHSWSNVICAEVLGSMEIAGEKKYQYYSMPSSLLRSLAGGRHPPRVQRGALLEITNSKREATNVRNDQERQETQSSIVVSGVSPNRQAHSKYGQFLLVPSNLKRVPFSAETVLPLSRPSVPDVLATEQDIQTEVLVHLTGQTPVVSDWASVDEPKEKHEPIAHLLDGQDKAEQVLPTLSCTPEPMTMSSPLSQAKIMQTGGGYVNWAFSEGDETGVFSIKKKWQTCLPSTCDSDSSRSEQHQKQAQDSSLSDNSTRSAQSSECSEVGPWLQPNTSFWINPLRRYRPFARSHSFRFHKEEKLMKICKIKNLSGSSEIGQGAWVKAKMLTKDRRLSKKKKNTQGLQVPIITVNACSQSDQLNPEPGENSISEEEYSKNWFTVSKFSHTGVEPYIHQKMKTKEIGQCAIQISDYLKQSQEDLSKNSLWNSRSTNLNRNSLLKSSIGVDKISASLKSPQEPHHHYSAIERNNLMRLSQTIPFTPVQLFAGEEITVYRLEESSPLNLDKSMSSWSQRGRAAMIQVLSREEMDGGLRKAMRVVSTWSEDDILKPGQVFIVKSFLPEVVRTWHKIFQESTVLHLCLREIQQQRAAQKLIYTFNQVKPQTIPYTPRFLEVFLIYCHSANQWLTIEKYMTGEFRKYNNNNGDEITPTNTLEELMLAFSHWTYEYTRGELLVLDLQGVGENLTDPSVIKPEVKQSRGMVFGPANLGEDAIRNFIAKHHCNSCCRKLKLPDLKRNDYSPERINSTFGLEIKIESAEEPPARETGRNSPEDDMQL
Sequence of PIK3CA (human), P42336 [C420R] (P42336 whole entry C420R, looked up): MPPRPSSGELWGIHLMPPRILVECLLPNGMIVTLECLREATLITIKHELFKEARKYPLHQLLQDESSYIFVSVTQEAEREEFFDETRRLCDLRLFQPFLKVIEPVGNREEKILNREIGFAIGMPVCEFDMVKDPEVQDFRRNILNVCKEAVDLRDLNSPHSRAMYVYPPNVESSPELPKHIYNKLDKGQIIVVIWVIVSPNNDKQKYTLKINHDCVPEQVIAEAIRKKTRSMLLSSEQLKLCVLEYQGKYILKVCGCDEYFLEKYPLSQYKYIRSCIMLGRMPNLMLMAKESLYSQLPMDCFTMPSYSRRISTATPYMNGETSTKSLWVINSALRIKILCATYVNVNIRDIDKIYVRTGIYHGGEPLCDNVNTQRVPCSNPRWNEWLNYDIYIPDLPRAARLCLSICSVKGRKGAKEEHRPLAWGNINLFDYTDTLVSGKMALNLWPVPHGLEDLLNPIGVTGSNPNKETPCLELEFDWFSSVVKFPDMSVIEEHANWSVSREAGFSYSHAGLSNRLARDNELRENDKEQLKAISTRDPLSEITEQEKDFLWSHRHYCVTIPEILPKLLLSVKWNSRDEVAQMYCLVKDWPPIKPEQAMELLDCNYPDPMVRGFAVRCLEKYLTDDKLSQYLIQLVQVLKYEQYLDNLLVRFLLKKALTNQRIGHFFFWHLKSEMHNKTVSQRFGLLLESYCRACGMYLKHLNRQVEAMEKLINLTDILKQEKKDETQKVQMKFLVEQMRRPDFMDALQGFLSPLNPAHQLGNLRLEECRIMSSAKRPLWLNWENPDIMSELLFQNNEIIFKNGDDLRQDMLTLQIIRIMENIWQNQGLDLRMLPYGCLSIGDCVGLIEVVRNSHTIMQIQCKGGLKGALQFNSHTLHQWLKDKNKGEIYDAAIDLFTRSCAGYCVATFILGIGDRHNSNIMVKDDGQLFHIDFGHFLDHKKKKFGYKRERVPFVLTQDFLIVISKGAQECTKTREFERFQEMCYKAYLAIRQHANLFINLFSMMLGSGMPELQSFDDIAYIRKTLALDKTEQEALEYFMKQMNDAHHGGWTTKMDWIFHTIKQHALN
Sequence of PAK4 (human) (O96013 whole entry, looked up): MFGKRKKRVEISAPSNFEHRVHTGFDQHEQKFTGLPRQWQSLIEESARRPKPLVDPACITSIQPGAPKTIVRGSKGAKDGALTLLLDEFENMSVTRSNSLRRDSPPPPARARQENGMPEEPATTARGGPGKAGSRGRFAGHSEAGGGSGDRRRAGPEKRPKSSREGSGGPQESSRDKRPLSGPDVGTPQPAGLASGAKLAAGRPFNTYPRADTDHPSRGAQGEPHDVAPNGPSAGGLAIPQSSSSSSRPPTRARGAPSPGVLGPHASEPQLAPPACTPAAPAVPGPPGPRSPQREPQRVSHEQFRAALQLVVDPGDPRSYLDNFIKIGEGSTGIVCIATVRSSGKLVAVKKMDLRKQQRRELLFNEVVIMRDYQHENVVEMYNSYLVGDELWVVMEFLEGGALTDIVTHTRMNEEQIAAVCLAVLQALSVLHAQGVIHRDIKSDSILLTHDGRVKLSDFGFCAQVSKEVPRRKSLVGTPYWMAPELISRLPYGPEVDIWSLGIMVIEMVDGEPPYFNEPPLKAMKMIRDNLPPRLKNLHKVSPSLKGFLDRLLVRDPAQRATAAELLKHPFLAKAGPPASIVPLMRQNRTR
Sequence of CDK5 (human) (Q00535 whole entry, looked up): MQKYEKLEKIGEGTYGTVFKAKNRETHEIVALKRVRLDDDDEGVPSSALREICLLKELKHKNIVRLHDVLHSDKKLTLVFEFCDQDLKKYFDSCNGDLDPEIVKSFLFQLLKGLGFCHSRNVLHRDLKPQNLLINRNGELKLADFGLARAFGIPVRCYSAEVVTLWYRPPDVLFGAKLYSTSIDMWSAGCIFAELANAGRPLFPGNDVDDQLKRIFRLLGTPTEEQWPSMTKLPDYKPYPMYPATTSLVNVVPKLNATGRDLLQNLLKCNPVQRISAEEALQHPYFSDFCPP

## CNc1nc(Nc2ccc(C(=O)N3CCOCC3)cc2OC)ncc1Cl
PIK3C2G (human)
  kinase still bound, per cent of control: 71%
MAP2K6 (human)
  kinase still bound, per cent of control: 100%
PRKACB (human)
  residual activity: 84%
BUB1 (human)
  kinase still bound, per cent of control: 100%
ACVR1 (human)
  kinase still bound, per cent of control: 95%
[1]
  kinase still bound, per cent of control: 100%
EGFR (human)
  kinase still bound, per cent of control: 100%
TNK1 (human)
  kinase still bound, per cent of control: 66%
SIK3 (human)
  kinase still bound, per cent of control: 100%
PAK4 (human)
  kinase still bound, per cent of control: 100%
CSNK1G2 (human)
  kinase still bound, per cent of control: 100%
MAP4K1 (human)
  kinase still bound, per cent of control: 100%
PRKCI (human)
  kinase still bound, per cent of control: 100%
CLK1 (human)
  kinase still bound, per cent of control: 100%
CSNK1A1L (human)
  kinase still bound, per cent of control: 94%
MAPK7 (human)
  kinase still bound, per cent of control: 98%
[2]
  kinase still bound, per cent of control: 85%
MST4 (human)
  kinase still bound, per cent of control: 100%
PHKG2 (human)
  kinase still bound, per cent of control: 58%
MAP4K3 (human)
  kinase still bound, per cent of control: 100%
MAP2K3 (human)
  kinase still bound, per cent of control: 93%
PAK6 (human)
  kinase still bound, per cent of control: 100%
PHKG1 (human)
  kinase still bound, per cent of control: 76%
ACVRL1 (human)
  kinase still bound, per cent of control: 100%
PRKAA2 (human)
  kinase still bound, per cent of control: 93%
CDK4 CCND1 (human)
  residual activity: 100%
ULK1 (human)
  kinase still bound, per cent of control: 100%
CDK5 (human)
  residual activity: 100%
[3]
  kinase still bound, per cent of control: 72%
CDK2 (human)
  residual activity: 95%
[4]
  kinase still bound, per cent of control: 68%
MAP2K7 (human)
  kinase still bound, per cent of control: 100%
MAPK10 (human)
  kinase still bound, per cent of control: 42%
TRPM6 (human)
  kinase still bound, per cent of control: 87%
BTK (human)
  kinase still bound, per cent of control: 100%
RPS6KA1 KD1 (human)
  kinase still bound, per cent of control: 100%
CSNK1E (human)
  kinase still bound, per cent of control: 100%
LATS1 (human)
  kinase still bound, per cent of control: 100%
RPS6KA5 KD2 (human)
  kinase still bound, per cent of control: 54%
